Assay results as given in the supplement of paper PMC10331698.
± gives the standard deviation of the averaged measurements.

How the values were obtained:
Assay in all cases: level (log10 ratio to DMSO vehicle control); higher = higher biomarker level / cell amount than vehicle control
[1] = compound: C=CC(=O)OCC(F)(F)C(F)(F)C(F)(F)C(F)(F)C(F)(F)C(F)(F)C(F)(F)F [1H,1H-Perfluorooctyl acrylate]; settings: in DMSO
Method: (§1)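 BioMAP Diversity Plus panel of 12 human primary cell co-culture systems (3C, 4H, LPS, SAg, BT, BF4T, BE3C, CASM3C, HDF3CGF, KF3CT, MyoF, Mphg). Compounds were added 1 h before stimulation and left for 24 h (MyoF 48 h; BT 72 h for soluble read-outs or 6 d for IgG). Biomarkers were read by ELISA, cytotoxicity by SRB, PBMC viability and proliferation by Alamar Blue. Each well value was divided by the mean of 8 DMSO control wells on the same plate and log10 transformed; duplicate blinded samples were tested at 4 concentrations.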

[2] = compound: FC(F)(F)C(F)(F)C(F)(F)C(F)(F)C(F)(F)CCI [1-Iodo-1H,1H,2H,2H-perfluoroheptane]; settings: in DMSO
Method: as §1

Pentafluoropropionamide = compound: NC(=O)C(F)(F)C(F)(F)F [Pentafluoropropionamide]; settings: in DMSO
Method: as §1

[3] = compound: O=C(O)C(F)(F)C(F)(F)C(F)(F)C(F)(F)C(F)(F)C(F)(F)C(F)(F)C(F)F [9-H-Perfluorononanoic acid]; settings: in DMSO
Method: as §1

[4] = compound: O=S(=O)(O)C(F)(F)C(F)(F)C(F)(F)C(F)(F)C(F)(F)C(F)(F)F [Perfluorohexanesulfonic acid]; settings: in DMSO
Method: as §1

[5] = compound: OCCC(F)(F)C(F)(F)C(F)(F)C(F)(F)C(F)(F)C(F)(F)F [6:2 Fluorotelomer alcohol]; settings: in DMSO
Method: as §1

[6] = compound: OCCCC(F)(F)C(F)(F)C(F)(F)C(F)(F)C(F)(F)C(F)(F)C(F)(F)F [7:3 Fluorotelomer alcohol]; settings: 6700 nM; in DMSO
Method: as §1

Row | Test System | level (log10) ([1]; 6700 nM) | level (log10) ([1]; 20000 nM) | level (log10) ([1]; 60000 nM) | level (log10) ([2]; 6700 nM) | level (log10) ([2]; 20000 nM) | level (log10) ([2]; 60000 nM) | level (log10) (Pentafluoropropionamide; 6700 nM) | level (log10) (Pentafluoropropionamide; 20000 nM) | level (log10) (Pentafluoropropionamide; 60000 nM) | level (log10) ([3]; 6700 nM) | level (log10) ([3]; 20000 nM) | level (log10) ([3]; 60000 nM) | level (log10) ([4]; 6700 nM) | level (log10) ([4]; 20000 nM) | level (log10) ([4]; 60000 nM) | level (log10) ([5]; 6700 nM) | level (log10) ([5]; 20000 nM) | level (log10) [6]
1 | 3C:CD87/uPAR | -0.0055 ± 0.012 | -0.0075 ± 0.0064 | 0.004 | -0.0105 ± 0.0092 | -0.0065 ± 0.0092 | 0.0045 ± 0.018 | -0.052 ± 0.016 | -0.042 ± 0.038 | -0.049 ± 0.014 | -0.013 ± 0.0042 | -0.0105 ± 0.023 | -0.029 ± 0.034 | -0.005 ± 0.027 | 0.0045 ± 0.011 | -0.0285 ± 0.013 | -0.0205 ± 0.059 | -0.0095 ± 0.042 | -0.003 ± 0.031
2 | 3C:CXCL8/IL-8 | 0.0075 ± 0.013 | -0.008 ± 0.0042 | 0.016 ± 0.03 | 0.011 ± 0.0085 | 0.0065 ± 0.016 | 0.051 ± 0.017 | -0.026 ± 0.013 | -0.028 ± 0.0099 | 0.002 ± 0.044 | -0.0115 ± 0.011 | 0.015 ± 0.0057 | 0.0765 ± 0.005 | -0.004 ± 0.014 | 0.031 | 0.069 ± 0.024 | -0.001 ± 0.0085 | -0.0105 ± 0.0092 | 0.0075 ± 0.0035
3 | 3C:CXCL9/MIG | 0.0015 ± 0.0035 | -0.002 ± 0.014 | 0.0115 ± 0.005 | -0.0035 ± 0.005 | -0.011 ± 0.0028 | -0.0075 ± 0.0064 | -0.0025 ± 0.0078 | -0.011 ± 0.0071 | 0.0085 ± 0.012 | -0.013 ± 0.0071 | 0.0095 ± 0.00071 | 0.0045 ± 0.0021 | 0.0015 ± 0.0035 | 0.0035 ± 0.0092 | 0.007 ± 0.0085 | 0.0045 ± 0.005 | -0.0145 ± 0.0035 | -0.0135 ± 0.0035
4 | 3C:HLA-DR | 0.0085 ± 0.0092 | 0.0155 ± 0.0035 | 0.0205 ± 0.019 | -0.001 ± 0.016 | 0.006 ± 0.0042 | -0.0035 ± 0.0064 | -0.0255 ± 0.029 | -0.0165 ± 0.013 | -0.0125 ± 0.00071 | -0.005 ± 0.0028 | 0.0005 ± 0.0021 | 0.028 ± 0.02 | -0.0015 ± 0.015 | -0.0105 ± 0.023 | 0.0125 ± 0.047 | 0.0095 ± 0.012 | -0.01 ± 0.021 | -0.002 ± 0.0057
5 | 3C:Proliferation | -0.015 ± 0.017 | -0.0805 ± 0.032 | -0.214 ± 0.033 | 0.001 ± 0.027 | -0.0465 ± 0.03 | -0.163 ± 0.052 | -0.0095 ± 0.05 | -0.0165 ± 0.0064 | -0.0115 ± 0.029 | -0.013 ± 0.017 | 0.004 ± 0.037 | -0.023 ± 0.031 | -0.042 ± 0.034 | -0.0525 ± 0.054 | -0.0305 ± 0.022 | -0.0325 ± 0.066 | -0.015 ± 0.086 | -0.093 ± 0.095
6 | 3C:SRB | -0.002 ± 0.0099 | 0.0145 ± 0.011 | 0.015 | 0.006 ± 0.013 | -0.019 ± 0.0042 | -0.0175 ± 0.013 | 0.008 ± 0.031 | -0.001 ± 0.011 | -0.025 ± 0.011 | -0.005 ± 0.028 | -0.0115 ± 0.016 | -0.052 ± 0.025 | -0.011 ± 0.0085 | -0.014 ± 0.0014 | -0.0425 ± 0.019 | -0.006 ± 0.023 | 0.004 ± 0.028 | -0.005 ± 0.0028
7 | 4H:CCL2/MCP-1 | -0.0145 ± 0.00071 | -0.015 ± 0.0028 | 0.0165 ± 0.026 | 0.005 | -0.0045 ± 0.029 | 0.0325 ± 0.035 | -0.028 ± 0.0042 | -0.0445 ± 0.03 | 0 ± 0.075 | -0.028 ± 0.013 | -0.059 ± 0.017 | -0.0405 ± 0.081 | -0.0205 ± 0.044 | -0.049 ± 0.031 | -0.0195 ± 0.054 | 0.009 ± 0.0085 | -0.0065 ± 0.018 | 0.025 ± 0.0099
8 | 4H:CCL26/Eotaxin-3 | 0.002 ± 0.023 | -0.002 ± 0.0057 | -0.0005 ± 0.0021 | 0.007 ± 0.017 | 0 ± 0.014 | -0.009 | -0.001 ± 0.013 | -0.0015 ± 0.013 | 0.0065 ± 0.026 | -0.002 ± 0.0085 | -0.0035 ± 0.013 | -0.0155 ± 0.0064 | -0.0105 ± 0.00071 | -0.001 ± 0.02 | -0.047 ± 0.018 | 0.0545 ± 0.013 | 0.016 ± 0.04 | 0.005 ± 0.014
9 | 4H:CD62P/P-selectin | 0.038 ± 0.05 | -0.0155 ± 0.018 | -0.047 ± 0.023 | 0.028 ± 0.075 | 0.049 ± 0.033 | -0.0635 ± 0.044 | -0.023 ± 0.054 | -0.0265 ± 0.0078 | -0.0475 ± 0.03 | 0.033 ± 0.078 | 0.0825 ± 0.0035 | 0.149 ± 0.014 | 0.008 ± 0.058 | 0.0555 ± 0.043 | 0.112 ± 0.066 | 0.0165 ± 0.012 | -0.004 ± 0.02 | 0.04 ± 0.027
10 | 4H:CD87/uPAR | -0.009 ± 0.062 | 0.0005 ± 0.037 | -0.003 ± 0.018 | 0.0265 ± 0.018 | 0.0175 ± 0.005 | 0.025 ± 0.03 | 0.009 ± 0.02 | -0.0185 ± 0.00071 | -0.009 ± 0.0099 | 0.002 ± 0.037 | 0.027 ± 0.017 | 0.019 ± 0.013 | -0.002 ± 0.023 | 0.0065 ± 0.013 | -0.0055 ± 0.022 | -0.002 ± 0.033 | 0.001 ± 0.033 | 0.0105 ± 0.015
11 | 4H:CD106/VCAM-1 | 0.0165 ± 0.036 | 0.032 ± 0.023 | 0.0225 ± 0.059 | 0.006 ± 0.051 | 0 ± 0.028 | -0.0205 ± 0.026 | -0.02 | -0.011 ± 0.03 | 0.0015 ± 0.0092 | 0.005 ± 0.054 | 0.0095 ± 0.016 | -0.001 ± 0.016 | -0.013 ± 0.0042 | -0.023 ± 0.0042 | -0.012 ± 0.014 | 0 ± 0.0057 | -0.002 ± 0.0057 | 0.019 ± 0.013
12 | 4H:SRB | 0.003 ± 0.016 | 0.0015 ± 0.013 | 0.0045 ± 0.0064 | -0.004 ± 0.0057 | -0.01 ± 0.0057 | -0.008 ± 0.013 | -0.0055 ± 0.021 | -0.0095 ± 0.0078 | -0.0135 ± 0.016 | 0.008 ± 0.033 | -0.0115 ± 0.025 | -0.039 ± 0.0099 | -0.0245 ± 0.015 | -0.025 ± 0.017 | -0.045 ± 0.023 | -0.011 ± 0.024 | -0.006 ± 0.024 | -0.0015 ± 0.0064
13 | 4H:VEGFR2 | -0.0075 ± 0.0035 | 0.0045 ± 0.0064 | 0.0235 ± 0.019 | 0.002 ± 0.047 | -0.004 ± 0.017 | 0.0155 ± 0.0021 | 0.032 ± 0.014 | 0.034 ± 0.027 | 0.072 ± 0.031 | 0.0105 ± 0.037 | 0.001 ± 0.027 | 0.051 ± 0.0099 | -0.021 ± 0.037 | -0.0125 ± 0.052 | 0.03 ± 0.038 | -0.058 ± 0.024 | -0.072 ± 0.078 | 0.014 ± 0.017
14 | BE3C:CD54/ICAM-1 | 0.0055 ± 0.042 | -0.011 ± 0.014 | 0.003 ± 0.014 | 0 ± 0.013 | -0.016 ± 0.011 | 0.006 ± 0.02 | -0.0045 ± 0.0021 | 0.002 ± 0.0028 | -0.0055 ± 0.00071 | -0.0435 ± 0.012 | -0.043 ± 0.0042 | -0.071 ± 0.0057 | 0 ± 0.027 | 0.0025 ± 0.016 | 0.008 ± 0.013 | 0.0035 ± 0.018 | 0.001 ± 0.016 | -0.0125 ± 0.00071
15 | BE3C:CD87/uPAR | -0.0045 ± 0.022 | 0.0205 ± 0.026 | 0.0315 ± 0.029 | 0.006 ± 0.02 | 0.002 ± 0.0057 | 0.027 ± 0.0042 | 0.0115 ± 0.042 | -0.025 ± 0.0057 | -0.0145 ± 0.022 | 0.0155 ± 0.035 | 0.0015 ± 0.0092 | 0.0325 ± 0.0021 | 0.0285 ± 0.00071 | 0.0015 ± 0.0035 | 0.035 ± 0.025 | 0.005 ± 0.031 | -0.0155 ± 0.012 | 0.0185 ± 0.03
16 | BE3C:CXCL8/IL-8 | 0.0375 ± 0.012 | 0.066 | 0.071 ± 0.042 | 0.0285 ± 0.037 | 0.0605 ± 0.023 | 0.086 ± 0.024 | 0.016 ± 0.028 | 0.0125 ± 0.074 | 0.0445 ± 0.044 | 0.0255 ± 0.084 | 0.0435 ± 0.059 | 0.0385 ± 0.023 | 0.017 ± 0.0071 | 0.0175 ± 0.023 | -0.032 ± 0.044 | 0.01 ± 0.048 | -0.0085 ± 0.021 | 0.006 ± 0.0028
